Experimental data from patent publication US20230339949A1, “HETEROCYCLIC SUBSTITUTED FUSED y-CARBOLINE DERIVATIVE, PREPARATION METHOD THEREFOR, INTERMEDIATE THEREOF AND USE THEREOF” (SHUJING BIOPHARMA CO., LTD, priority 2020, published 2023).
Like-named read-outs stand apart in the source and are kept apart here.

What was measured:
D2S receptor = molecular target: T1, D2S receptor (Homo sapiens, UniProt P14416); test: Functional activity test on D2S receptor, cAMP detection (Gi antagonist test); format: cell-based; settings: cultured HEK293/D2S cells, forskolin + dopamine EC90
T1 construct: expressed in transfected cells
Text: (§1) The antagonistic effects of the compounds of the present disclosure on D2L and D2S receptors were detected by cyclic adenosine monophosphate (cAMP) detection method at cell-level.
(§2) • (1) Test compound: compounds of the embodiment of the present disclosure, self-made. • (2) Control compound: dopamine hydrochloride (Sigma, H8502), (+)-Butaclamol hydrochloride (Sigma, D033). • (3) Stable cell line:
(§3) • (1) Preparation of test compounds: the compounds of the embodiments of the present disclosure were respectively dissolved in DMSO to prepare 10 mM mother liquor, and the mother liquor was stored in the nitrogen cabinet for later use. • (2) Preparation of control compound: the control compound was dissolved in DMSO to prepare 10 mM mother liquor, and the mother liquor was repackaged and stored in the refrigerator at −80° C. for later use. • (3) IBMX was dissolved in DMSO to prepare 0.5 M stock solution and the stock solution was cryopreserved at −80° C. • (4) Forskolin was dissolved in DMSO to prepare 1 mM stock solution and the stock solution was cryopreserved at −80° C. for later use. • (5) Experimental buffer: 5× stimulation buffer was diluted to 1× with ddH2O and IBMX with a final concentration of 0.5 mM was added thereto, and the solution was mixed well for later use.
(§4) • (1) Preparation of compounds: the test compounds and positive control compound (+)-Butaclamol hydrochloride were diluted gradient using Bravo in the compound plate (Greiner-781280), and the initial concentration of working solution was 20 μM, and the working solution was diluted at 4-fold for 10 concentrations and centrifuged at 1000 rpm for 1 minute for later use. • (2) Cryopreserved D2L cells: cells was taken out from the liquid nitrogen tank and thaw in a water bath at 37° C., and the cell suspension was transferred to a centrifuge tube containing HBSS buffer, and centrifuged at 750 rpm for 5 minutes.
(§5) Cultured D2S cells: after absorbing the culture medium, the cells were washed with 3 mL PBS, sucked out, digested with 0.05% Trypsin for 3 min, terminated with equal volume of culture medium, transferred to centrifuge tube, and centrifuged at 750 rpm for 5 minutes. After absorbing the liquid, the centrifuge tube was added with a buffer solution containing HBSS and re-suspend, and centrifuged at 750 rpm for 5 minutes. • (3) The supernatant was discarded, and the precipitate was re-suspended with proper amount of experimental buffer, and 20 μL was taken for cell counting. • (4) Appropriate amount of cell suspension was removed, and the cell suspension was diluted to 2×10^5 cells/mL with experimental buffer, and the cell plate (PerkinElmer-6008280) was added with 5 μL/well cell suspension, and centrifuged at 1000 rpm for 1 minute. • (5) 5 μL/well was transferred to the cell plate with Bravo, and the cell plate was centrifuged at 1000 rpm for 1 minute, then the cell plate was closed and incubated at room temperature for 15 minutes. • (6) Forskolin was transferred to the cell plate with Tecan-D300e, and Dopamine hydrochloride with a final concentration of EC90 was transferred to the cell plate. • (7) The cell plate was centrifuged at 1000 rpm for 1 minute, then sealed and incubated at room temperature for 45 minutes. • (8) Standard curve: cAMP with the stock solution concentration of 2848 nM was diluted 4-fold continuously at 8 points according to the initial maximum concentration of 712 nM, and 10 μL/well was taken out to add to the cell plate. • (9) 10 μL/well of detection solution containing cAMP-d2 and Anti-cAMP-Cryptate (diluted with pyrolysis buffer at 1:20) was added to the cell plate, and the cell plate was centrifuged at 1000 rpm for 1 minute, and incubated at room temperature without light for 1 hour. • (10) Detection: the cell plate was centrifuged at 1000 rpm for 1 minute, and the plate was read with Envision (excitation light 340 nm, emission light 620 nm and 665 nm). […]

D2L receptor = molecular target: T2, D2L receptor (Homo sapiens, UniProt P14416); test: Functional activity test on D2L receptor, cAMP detection (Gi antagonist test); format: cell-based; settings: cryopreserved CHO-K1/D2L/Gα15 cells, forskolin + dopamine EC90
T2 construct: expressed in transfected cells
Text: as §1, §2, §3, §4, §5

[1] = tested on: MK-801 induced hyperactivity behavior; test: MK-801 induced hyperactivity behavior in mice; format: in vivo, ICR mice; settings: for ED50: Mus musculus, read-out: ED50 (half effective dose)
Procedure: The efficacy of the compounds of the present disclosure was evaluated by high activity model of mice induced by intraperitoneal injection of MK-801.
(§6) Experimental animals: ICR mice, male, 8 mice/group, Spelford (Beijing) Biotechnology Co., Ltd.
Preparation of drug: the test compounds were taken, and pure water was added, and ultrasonication was performed.
Administration route and method: gavage administration, 10 mL/kg (body weight).
(§7) Administration frequency and duration: single dose.
Animals were stratified by body weight and then randomly divided into blank group, model group, and administration group, and detailed information of administration is shown in the following table.
Mice were stratified according to body weight and then randomly divided into model group, blank group and each administration group. One hour after the gavage administration of solvent or drug, 0.3 mg/kg MK-801 was injected intraperitoneally (the blank group was injected with the same volume of physiological saline), and then the mice were put into an independent activity box (a black polyethylene box with the specification of 29 cm×29 cm×30 cm) for video recording for 60 minutes, and video analysis was performed at the end of the recording to evaluate the activity of the mice.
(§8) The experimental data were expressed as x±SD, and SPSS statistical software was used to test the homogeneity of variance. If the variance was homogeneous, single factor analysis of variance was performed, and Dunnett t test is used for pairwise comparison. The ED50 was calculated by nonlinear fitting with GraphPad Primis5 software.

5-HT2A receptor = molecular target: T3, 5-HT2A receptor (Homo sapiens, UniProt P28223); test: Functional detection experiment of 5-HT2A receptor (cultured cells), calcium influx assay; format: cell-based
T3 construct: expressed in transfected cells
Text: The antagonistic effect of the compound of the present disclosure on the 5-HT2A receptor was detected by a calcium influx assay at the cellular level.
• (1) Test compounds: compounds of the embodiments of the present disclosure, self-made. • (2) Control compound: serotonin hydrochloride 5-hydroxytryptamine (Sigma, H9523), Ketanserin (Targetmol, T1066). • (3) Stable cell line:
• (1) Preparation of test compounds: the compounds of the embodiments of the present disclosure were respectively dissolved in DMSO to prepare 10 mM mother liquor, and the mother liquor was stored in the nitrogen cabinet for later use. • (2) Preparation of control compound: the control compound was dissolved in DMSO to prepare 10 mM mother liquor, and the mother liquor was repackaged and stored in the refrigerator at -80° C. for later use. • (3) Preparation of 250 mM probenecid solution: 1 mL experimental buffer was added into a tube containing 77 mg powder, and the powder was dissolved by vortex oscillation. • (4) Preparation of 2× fluorescent probe solution: a bottle of fluorescent probe dry powder was taken out to balance to room temperature, and 10 mL of experimental buffer solution and 200 μL of 250 mM probenecid solution were added thereto, and the mixture was scrolled and let stand for 5 minutes to ensure complete dissolution. • (5) Experimental buffer HBSS: HBSS and HEPES were mixed evenly in a ratio of 50:1, stored in a refrigerator at 4° C., and heated at 37° C. when used.
• (1) Cells were taken out from the liquid nitrogen tank and melted in a water bath at 37° C. The surface of the cryopreservation tube was wiped with 75% alcohol and put in the biosafety cabinet. • (2) The cell suspension was transferred to a 15 mL centrifuge tube with 4 mL preheated plating medium, and the tube was centrifuged at 1000 rpm for 5 minutes. • (3) The supernatant was discarded, and 10 mL of plating medium was added and blown gently, and the mixture was transferred to a culture dish for growth. After the cells had adhered to the wall for 24 hours, they were replaced with growth medium for continuous culture.
• (1) The logarithmic growth cells was taken and the cells grew to about 85%-90%. The cells were performed the following operations: cell cleaning, digestion, termination, then transferred to a 15 mL centrifuge tube, and the tube was centrifuged at room temperature at 1000 rpm for 5 minutes. • (2) The supernatant was discarded, and a certain plating medium was added and blown gently. 20 μL of cell suspension was taken out and counted. • (3) Cells were diluted to 1×10^6 cells/mL and 20 μL of cell suspension was added to each well of the cell plate (Greiner-781946), so that the density of each well is 2×10^4 cells/well. • (4) The cell plate was incubated in an incubator with 5% CO2 at 37° C. for 16-24 hours. […]

[2] = tested on: DOI-induced head-shaking behavior; test: DOI-induced head-shaking behavior in mice; format: in vivo, ICR mice; settings: Mus musculus, read-out: ED50 (half effective dose)
Procedure: The efficacy of the compounds of the present disclosure was evaluated by the mice model of head-shaking behavior induced by intraperitoneal injection of (±) DOI (a hallucinogenic agent usually used to replicate anti-schizophrenic animal model).
as §6
Preparation of drug: the test compounds were taken, and solvent was added, and ultrasonication was performed.
Administration route and method: oral gavage administration, 10 mL/kg (body weight).
as §7
Animals were stratified by body weight and then randomly divided into blank group, model group, and administration groups, and detailed information of administration is shown in the following table.
Mice were stratified according to body weight and then randomly divided into model group, blank group and each administration group. One hour after the animals were gavage administration of the solvent or drugs, they were placed in a beaker (13 cm in diameter, 19 cm in height) with fresh padding, and the model drug DOI was injected intraperitoneally at a dose of 1 mg/kg. The times of head-shaking were recorded within 0-20 minutes after DOI was injected intraperitoneally.
Head-shaking behavior is defined as rapid rotational twitch of mouse's head or wet dog-like shaking, which should be different from normal hair grooming or inquiry behavior.
as §8

[3] = male ICR mice, single gavage dose 1 h before MK-801 0.3 mg/kg i.p., activity recorded 60 min
[4] = cultured CHO-K1/5-HT2A cells, calcium influx (FLIPR), antagonist mode vs agonist EC80, read-out: 5-HT2A IC50

T2 sequence (P14416 whole entry): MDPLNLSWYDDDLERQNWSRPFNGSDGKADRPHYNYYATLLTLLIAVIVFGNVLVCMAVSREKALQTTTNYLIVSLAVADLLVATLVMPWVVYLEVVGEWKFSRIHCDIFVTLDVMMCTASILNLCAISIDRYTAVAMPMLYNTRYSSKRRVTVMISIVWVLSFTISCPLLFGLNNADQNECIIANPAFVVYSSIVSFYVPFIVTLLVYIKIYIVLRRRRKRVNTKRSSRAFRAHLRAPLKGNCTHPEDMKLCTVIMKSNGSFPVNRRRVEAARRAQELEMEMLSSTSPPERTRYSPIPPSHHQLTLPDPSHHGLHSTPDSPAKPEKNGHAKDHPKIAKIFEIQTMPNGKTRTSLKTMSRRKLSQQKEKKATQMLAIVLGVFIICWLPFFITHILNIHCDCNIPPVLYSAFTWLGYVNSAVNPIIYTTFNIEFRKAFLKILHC
T3 sequence (P28223 whole entry): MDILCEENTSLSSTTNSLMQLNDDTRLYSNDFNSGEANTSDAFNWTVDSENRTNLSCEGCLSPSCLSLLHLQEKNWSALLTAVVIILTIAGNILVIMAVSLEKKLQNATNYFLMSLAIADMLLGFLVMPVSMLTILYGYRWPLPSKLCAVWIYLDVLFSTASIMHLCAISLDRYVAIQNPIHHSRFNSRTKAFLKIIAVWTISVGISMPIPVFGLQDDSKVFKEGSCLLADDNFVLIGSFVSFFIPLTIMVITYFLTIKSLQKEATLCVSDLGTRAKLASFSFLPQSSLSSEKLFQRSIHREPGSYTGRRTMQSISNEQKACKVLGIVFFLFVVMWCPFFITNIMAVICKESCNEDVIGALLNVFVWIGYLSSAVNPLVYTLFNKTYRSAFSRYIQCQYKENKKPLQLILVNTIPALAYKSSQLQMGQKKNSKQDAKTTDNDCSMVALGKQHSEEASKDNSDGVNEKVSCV
T1 sequence (P14416 1-414 isoform P14416-2): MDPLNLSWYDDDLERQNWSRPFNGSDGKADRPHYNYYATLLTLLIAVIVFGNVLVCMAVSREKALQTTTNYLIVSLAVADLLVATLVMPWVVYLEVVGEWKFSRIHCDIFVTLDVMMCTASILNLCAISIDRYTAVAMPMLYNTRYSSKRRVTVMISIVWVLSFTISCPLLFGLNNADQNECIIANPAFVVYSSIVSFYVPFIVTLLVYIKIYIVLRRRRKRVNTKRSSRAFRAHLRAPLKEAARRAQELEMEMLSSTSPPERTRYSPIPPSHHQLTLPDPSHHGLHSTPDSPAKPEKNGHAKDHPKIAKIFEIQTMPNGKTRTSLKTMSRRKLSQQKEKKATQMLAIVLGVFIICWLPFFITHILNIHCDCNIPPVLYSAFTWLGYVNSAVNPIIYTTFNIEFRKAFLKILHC

IC50 (D2S receptor) [nM] | IC50 (D2L receptor) [nM] | IC50 (5-HT2A receptor; [4]) [nM] | Structure (SMILES) | ED50 [1] [mg/kg] | MED (lowest effective dose) [1, 3] [mg/kg] | IC50 (5-HT2A receptor) [nM] | ED50 [1, 3] [mg/kg] | ED50 [2] [mg/kg]
622 | 35.8 |  | CN1CCN2c3c(cccc31)C1CN(CCCC(=O)c3ccc(F)cc3)CCC12 (centres unmarked) [Comparative embodiment 2, 1-(4-fluorophenyl)-4-(3-methyl-2,3,6b,9,10,10a-hexahydro-1H-pyrido[3′,4′:4,5]pyrrolo[1,2,3-de]quinoxalin-8(7H)-yl)butan-1-one, reference compound] |  |  |  |  | 
93.4 | 13.1 |  | Cn1c(=O)c(=O)n2c3c(cccc31)C1(C)CN(CCCC(=O)c3ccc(F)cc3)CCC21 (centres unmarked) [Embodiment 5, 8-(4-(4-fluorophenyl)-4-oxobutyl)-3,6b-dimethyl-6b,7,8,9,10,10a-hexahydro-1H-pyrido[3′,4′:4,5]pyrrolo[1,2,3-de]quinoxaline-1,2(3H)-dione] |  |  |  |  | 
 |  |  | CN1CCN2c3c1cccc3C1(C)CN(CCCC(=O)c3ccc(F)cc3)CCC21 (centres unmarked) [Embodiment 7, 4-(3,6b-dimethyl-2,3,6b,9,10,10a-hexahydro-1H-pyrido[3′,4′:4,5]pyrrolo[1,2,3-de]quinoxalin-8(7H)-yl)-1-(4-fluorophenyl)butan-1-one] | 0.09 | 0.1 | 3.5 |  | 
364 | 200 | 44.4 | CN1C(=O)CN2c3c(cccc31)C1CN(CCCC(=O)c3ccc(F)cc3)CCC12 (centres unmarked) [Comparative embodiment 1, 8-(4-(4-fluorophenyl)-4-oxobutyl)-3-methyl-6b,7,8,9,10,10a-hexahydro-1H-pyrido [3′,4′:4,5]pyrrolo[1,2,3-de]quinoxalin-2(3H)-one, reference compound] |  | 1 |  | 1.28 | 
264 | 88.8 | 9.11 | CN1C(=O)CN2c3c(cccc31)[C@@H]1CN(CCCC(=O)c3ccc(F)cc3)CC[C@@H]12 [Comparative embodiment 1-A, reference compound] |  |  |  |  | 
63.1 | 15.5 | 108 | CN1C(=O)CN2c3c1cccc3[C@@]1(C)CN(CCCC(=O)c3ccc(F)cc3)CC[C@@H]21 [Embodiment 1-B, (6bS,10aR)-8-(4-(4-fluorophenyl)-4-oxobutyl)-3,6b-dimethyl-6b,7,8,9,10,10a-hexahydro-1H-pyrido[3′,4′:4,5]pyrrolo [1,2,3-de]quinoxalin-2(3H)-one] |  |  |  |  | 
 |  |  | CN1C(=O)C(C)(C)N2c3c1cccc3C1(C)CN(CCCC(=O)c3ccc(F)cc3)CCC21 (centres unmarked) [Embodiment 4, 8-(4-(4-fluorophenyl)-4-oxobutyl)-1,1,3,6b-tetramethyl-6b,7,8,9,10,10a-hexahydro-1H-pyrido [3′,4′:4,5]pyrrolo[1,2,3-de]quinoxalin-2(3H)-one] |  |  | 19.7 |  | 0.42

Structure (SMILES) | IC50 (D2S receptor) [nM] | IC50 (D2L receptor) [nM] | IC50 (5-HT2A receptor; [4]) [nM] | ED50 [1] [mg/kg] | MED (lowest effective dose) [1, 3] [mg/kg] | IC50 (5-HT2A receptor) [nM] | ED50 [1, 3] [mg/kg] | ED50 [2] [mg/kg]
CCN1C(=O)CN2c3c1cccc3C1(C)CN(CCCC(=O)c3ccc(F)cc3)CCC21 (centres unmarked) [Embodiment 3, 3-ethyl-8-(4-(4-fluorophenyl)-4-oxobutyl)-6b-methyl-6b,7,8,9,10,10a-hexahydro-1H-pyrido[3′,4′:4,5]pyrrolo[1,2,3-de]quinoxalin-2(3H)-one] | 207 | 51.4 |  |  |  |  |  | 0.21
